Like-named read-outs stand apart in the source and are kept apart here.
Experiments:
human LDL = assay: In vitro oxidation of human LDL (Cu-induced conjugated diene formation at 234 nm); assay type: biochemical
Experimental: In vitro oxidation of human LDL Human venous blood was collected on EDTA (2.68 mM final concentration). Plasma was isolated by centrifugation. NaBr (37.3 mg/ml) was added and solubulized (final density 1.036 g/ml). Centrifuge tubes were first filled to a level corresponding to 2/3 of their maximal volume, further filled with a NaBr solution of 1.036 g/ml and then centrifuged for 18 hours at 45000 rpm in a 50 Ti rotor (Beckmann). After centrifugation, floating lipoproteins were discarded. The remaining solution was adjusted to a density of 1.055 g/ml. Filling of the centrifuge tubes and centrifugation were repeated as described above. After centrifugation, floating LDL was dialysed against a buffer containing 127 mM NaCl, 8 mM Na2 HPO4.2H2 O, 2.7 mM KCl and 1.47 mM KH2 PO4 at pH 7.4. After dialysis, LDL was filtered though a Millipore filter (0.45 μM) and protein content was determined. A dilution of 25 μg/ml was prepared with a millipored dialysis buffer. Oxidation was determined in a Pharmacia Ultraspec III spectrophotometer. Conjugated diene formation was registered at 234 nm. Two μl of a drug or solvent (DMSO) were added to Eppendorf tubes followed by 1 ml of LDL (25 μg/ml) and these substances were gently mixed and centrifuged for 1 min at 13000 g. The solution was pipetted in a Quartz cuvet that was thermostatised in the spectrophotometer at 37° C. After equilibration, the oxidation reaction was started by the addition of CuSO4 (final concentration 10 μM). Absorbance was measured every 3 minutes during the time course of the experiment. The absorbance at 234 nm was divided into three phases: a lag phase, a propagation phase and a decomposition phase (FIG. 1). The lag phase was defined as the intercept with the baseline of the tangent of the slope of the absorbance curve of the propagation phase. The rate of oxidation was defined as the tangent of the slope. Tmax was defined as the time required to attain the maximum absorbance between the propagation and the decomposition phase. The absorbance at tmax minus the absorbance at to was taken as an indicator of the total amount of dienes formed. To verify the reproducibility of the assay, a reference LDL sample was prepared and kept in darkness under nitrogen at 4° C. This reference sample was included in every oxidation experiment. LDL was isolated from 23 subjects. Plasma cholesterol ranged from 156 to 278 mg/dl (mean 213 mg/dl), triglycerides ranged from 47 to 328 mg/dl (mean 191 mg/dl) and phospholipids ranged from 178 to 327 mg/dl (mean 231 mg/dl).

[1] = tested on: primary embryonic hippocampal cultures; assay: In vitro neuroprotection against nitric oxide and superoxide radicals (inhibition of LDH release); assay type: cell-based, rats; conditions: for inhibition at 1 µM / inhibition at 0.1 µM: Rattus norvegicus, read-out: % neuroprotection, mean ± SD; for inhibition at 1 µM: 10^-6 M; for inhibition at 0.1 µM: 10^-7 M
Experimental: Primary embryonic hippocampal cultures were prepared essentially as described previously (Pauwels et al., Van Aschouw, H. P., Peeters, L., Moeremans, M., Leysen, J. E. (1992) Chronic treatment with sabeluzole protects cultured rat brain neurons from the neurotoxic effects of excitatory amino acids. Synapse, 12:271-280). Hippocampal formations of rats at embryonic day 17 were dissected and dissociated in 0.05% trypsin, 0.1 mg/ml DNase I in DMEM (Dulbecco Modified Eagle Medium). Heat-inactivated horse serum (HS) was added to a concentration of 4%, and the cells were centrifuged, washed with DMEM, and resuspended in DMEM/Ham's F12 (3:1) containing 10% HS. The cells were plated at a density of 4×10^5 cells/cm^2 in poly L-lysine (0.001%) precoated multiwell-24 plates. On day 1 in culture, the medium was changed to chemically defined CDM-R12 medium (DMEM-HEPES/Ham's F12 (3:1) containing 0.26% bovine serum albumin, 30 nM sodium selenite, 3 nM 3,3',5 triiodo-L-thyronine, 0.35 μM retinol, 0.3 μM retinol acetate, 2.3 μM DL-a-tocopherol, 2.1 μM DL-a-tocopherol acetate, 3.6 μM linolenic acid, 3.6 μM linoleic acid, 0.125% human transferrin, […], 57.7 nM corticosterone, 49 U/I insulin, 0.4 μM biotin, 10 μM L-carnitine, 83 μM D(+)-galactose, 3.3 μM glutathione, 10 μM ethanolamine, 0.1 mM putrescine; Romijn, H. J., van Huizen, F., Wolters, P. S. (1984) Towards an improved serum-free, chemically defined medium for long-term culturing of cerebral cortex tissue. Neurosci. Behav. Rev., 8:301-334). Acute and prolonged pretreatment of the, cultures was essentially as described previously (Pauwels et al., 1992). Drugs were dissolved, and diluted in 10% or 1% hydroxypropyl-β-cyclodextrin such that the final concentrations of the solvent in the acute and chronic exposures were 0.1% and 0.01% respectively. Compound A as used in the following examples is [(RRSR)+(RRRS)+(SSSR) +(SSRS)]-α-[[[2-(chroman-2-yl)-2-hydroxy-ethyl]amino]methyl]-6-hydroxy-2-chromanmethanol ethanedioate (1:1).
For acute treatment, drug, or solvent was added to the cultures on day 7. After 20 min the medium was replaced with 200 μl chemically defined DMEM medium (the same composition of CDM-R12 medium but without Ham's F12) (control), or chemically defined DMEM medium containing the oxidative stress trigger. Oxidative stress triggers used were 1 mM sodium nitroprusside (SNP, a nitric oxide radical generating compound), or 7.5-10 mM diethyldithiocarbamate (DDTC, a superoxide dismutase inhibitor) and the test compound.
For prolonged pretreatment experiments, drug (concentration range 0.1 nM-10 μM) was added to the serum-free medium on days 1 and 4 of the culture. On day 7, the cultures were washed once with DMEM, and incubated with 0.2 ml chemically defined DMEM medium for 2 h at 37° C. The cells were washed and the medium was replaced by 0.2 ml chemically defined DMEM medium (control), or chemically defined DMEM medium containing the oxidative stress trigger (se above).
For both the acute experiment and the prolonged pretreatment experiment, extracellular and intracellular LDH (lactate dehydrogenase) activities were measured spectrophotometrically at 340 nm with an EPOS Analyzer 5060, according to the method of Bergmeyer (Bergmeyer, H. U. (1974) Biochemical reagents. In: Methods of Enzymatic Analysis. H. U. Bergmeyer, eds. Academic Press, New York, 2nd Ed., pp. […]). Extracellular LDH activity in the culture medium and cytoplasmic LDH activity measured after lysis of the cells in 1 ml H2 O, were used to calculate total LDH activity and % released LDH. % Neuroprotection refers to % inhibition of LDH release, where oxidative stress trigger-induced LDH release is defined as 0% protection, and basal (control) level of LDH release is defined as 100% protection.
Neuronal primary hippocampal cultures were grown in CDM-R12 medium for 7 days. Test compounds were either administered on days 1 and 4 of culture (prolonged pretreatment) or on day 7 of culture (acute treament). […]

C6 glioma cells [2] = assay: Fluorescence measurement of intracellular peroxides in C6 glioma cells after glutamate; assay type: cell-based
Excerpt: (§1) Competitive inhibition by glutamate of cystine uptake in certain cells leads to glutathione depletion and oxidative stress. This oxidative stress model has been described for glial C6 glioma cells (Kato et al., 1992. A mechanism for glutamate toxicity in the C6 glioma cells involving inhibition of cystine uptake leading to glutathione depletion. Neurosci. 48:903-914) and for the neuronal cell line N18RE105 (Murphy et al., 1989. Glutamate toxicity in a neuronal cell line involves inhibition of cystine transport leading to oxidative stress. Neuron 2:1547-1558).
(§2) Cell culture: The C6 glioma cell line (American Type Culture Collection, CCL 107) was cultivated in DMEM supplemented with 2 or 4 mM glutamine, 1 mM pyruvate and 5 or 10% heat-inactivated foetal calf serum. Cultures were maintained at 37° C. in an air/5~10% CO2, water saturated atmosphere.
(§3) Glutathione depletion and evaluation of drugs as antioxidants: Experiments were carried out with cultures plated at 30,000~50,000 cells/cm^2 in 24-well culture plates (for toxicity and lipid peroxide measurements) or at 136,000 cells/cm^2 in 96-well culture plates (for GSH determination). After 8-24 hr, the cultures were switched to culture medium in the absence or presence of the cystine uptake inhibitor glutamate at a final concentration of 10 mM. In order to test drugs for inhibition of oxidative stress, the drug was added together with glutamate (final concentration of solvent was 0.01% hydroxypropyl-β-cylodextrin, 0.1% DMSO). Intracellular glutathione levels were measured after 6~8 hr, lipid peroxides were measured after 14~20 hr, and toxicity and protection were analysed after 48 hr using an LDH assay according to the method of Bergmeyer and Bernt (UV-assay with pyruvate and NADH. In: Methods of Enzymatic Analysis. 1974. H. U. Bergmeyer, ed. Acad. Press, New York, 2nd Ed., pp 574-579).
Fluorescence measurement of intracellular peroxides: Formation of intracellular peroxides was detected using 6-carboxy-2',7'-dichlorodihydrofluorescin diacetate, di(acetoxymethyl ester) (C-DCDHF, Molecular Probes). C-DCDHF was dissolved in DMSO at a concentration of 10 mM and stored at -70° C. under nitrogen. After exposure of the culture to the glutathione depleting agents, the cells were loaded with 10 μM C-DCDHF for one hour at 37° C. Medium was aspirated off, PBS was added to the cells, and plates were read in a Cytofluor II microplate reader (PerSeptive Biosystems). Excitation and emission wavelength were selected with a 485/530 nm filter pair. The results were expressed in relative fluorescence units/μg protein.

C6 glioma cells [3] = assay: Protection of C6 glioma cells from glutathione depletion-mediated oxidative stress (toxicity, LDH assay); assay type: cell-based
Excerpt: as §1, §2, §3

C6 glioma cells [4] = assay: GSH content in C6 glioma cultures after glutamate; assay type: cell-based
Excerpt: as §1, §2, §3
Determination of GSH content in C6 glioma cultures: GSH levels were analysed by a micromethod, essentially as described by Vandeputte et al. (A microtiterplate assay for total glutathione and glutathione disulfide contents in cultured/isolated cells: performance study of a new miniaturised protocol. 1994. Cell Biol. Toxicol. 10:415-421), with a modification in the washing and homogenisation procedures. Cells (in 96-well plates) were washed with PBS, were homogenised in 50 μl 10 mM HCl containing 1.3% 5-sulfosalicylic acid, and the homogenate was centrifuged at 1200×g for 10 min at 4° C. Forty μl of the supernatant was transferred to a well of a 96-well plate and 200 μl reagent (1 mM 5,5'-dithiobis-(2-nitrobenzoic acid), 0.34 mM NADPH and 6.3 mM EDTA in 143 mM phosphate buffer pH 7.4) was added. After 5 min equilibration to room temperature the reaction was started by adding 40 μl glutathione reductase (8.5 IU/ml 143 mM phosphate buffer, 6.3 mM EDTA pH 7.4). NADPH oxidation was followed at 414 nm for 5 minutes with a Multiskan MCC/340 (Labsystems), and the change in absorbance (DA) per min was calculated. The glutathione content was deduced from a standard curve ranging from 0.2 to 2 nmol commercial GSH per test (DA/min plotted versus concentration).

[5] = DDTC trigger, prolonged pretreatment
[6] = SNP trigger, prolonged pretreatment
[7] = glutamate 10 mM, without or with compound 1 μM

For Oc1ccc2c(c1)CCC(C(O)CNCC(O)C1CCc3ccccc3O1)O2 (stereo not drawn) [[(RSSS)+(RSRR)+(SRSS)+(SRRR)]-α-[[[2-(chroman-2-yl)-2-hydroxyethyl]amino]-methyl]-6-hydroxy-2-chroman-methanol ethanedioate (1:1)], the Tmax (human LDL; 2 μM, FIG. 2) was “increased”, the lag time (human LDL; 2 μM, FIG. 2) was “increased” and the rate of oxidation (human LDL; 2 μM, FIG. 2) was “decreased”.
In the case of COc1ccccc1OCCNCC(O)COc1cccc2[nH]c3ccccc3c12 (stereo not drawn) [carvedilol, reference compound], the inhibition at 1 µM ([1]; DDTC trigger, acute treatment) is reported as < 25%, the inhibition at 0.1 µM ([1]; DDTC trigger, acute treatment) is reported as < 25% and the inhibition at 1 µM [1, 5] is reported as < 25%. For the same compound, the inhibition at 0.1 µM [1, 5] was < 25%, the inhibition at 1 µM ([1]; SNP trigger, acute treatment) was < 25% and the inhibition at 0.1 µM ([1]; SNP trigger, acute treatment) was < 25%. The inhibition at 1 µM [1, 6] was < 25%, the inhibition at 0.1 µM [1, 6] was < 25% and the “neuroprotection against DDTC or SNP” value ([1]; one or the other treatment paradigm) was “not observed”.
With Cc1c(C)c2c(c(C)c1O)CCC(C)(CCCC(C)CCCC(C)CCCC(C)C)O2 (stereo not drawn) [vitamin E, α-tocopherol, reference compound] the Tmax (human LDL; 20 μM vitamin E, compared with 2 μM hydroxymetabolites of nebivolol) was “close to the tmax for the 2 μM hydroxymetabolites of nebivolol”, the anti-oxidant effect (human LDL; concentration lower than 10 μM (results not shown)) was “did not show any anti-oxidant effect” and the “antioxidative effect on human LDL” value (human LDL; in vitro) was “delay the oxidation of LDL”. For the same compound, the initial absorbance (human LDL; vitamin E) was “not affected”, the rate of oxidation (human LDL; vitamin E) was “not affected” and the total amount dienes (human LDL; vitamin E) was “not affected”.
With N[C@@H](CCC(=O)O)C(=O)O [glutamate, reference compound] the “increase in toxic intracellular peroxides” value (C6 glioma cells [2]; 10 mM glutamate) was ~6 fold, the “Intracellular peroxides (mean ± SD, n)” value (C6 glioma cells [2]; [7]) was 525 ± 57 Relative fluorescence units/μg and the cytotoxicity at 10000 µM (C6 glioma cells [3]; Rattus norvegicus, C6 glioma, 48 h, read-out: LDH release, % of total LDH) was 93.2 ± 1.3%. For the same compound, the intracellular glutathione levels (C6 glioma cells [4]; 10 mM glutamate, 6 hr or more) was “sharp reduction in intracellular glutathione levels” and the GSH content (C6 glioma cells [4]; [7]) was 296 ± 26 pmol/well.
With Oc1ccc2c(c1)CCC(C(O)CNCC(O)C1CCc3cc(O)ccc3O1)O2 (stereo not drawn) [[(SRSR)+(SRRS)+(RSSR)] -α,α'-iminobis(methylene)bis[6-hydroxy-2-chromanmethanol]] the Tmax (human LDL; 2 μM, FIG. 2) was “increased”, the lag time (human LDL; 2 μM, FIG. 2) was “increased” and the rate of oxidation (human LDL; 2 μM, FIG. 2) was “decreased”.
In the case of C[C@]12N[C@H](Cc3ccccc31)c1ccccc12 [MK801, reference compound], the “cytoplasmic LDH release (glutamate toxicity)” value (C6 glioma cells [3]; data not shown) is reported as “not prevented”.
